Experimental data published in ChEMBL document CHEMBL4052627, “An overview of azoles targeting sterol 14α-demethylase for antileishmanial therapy” (Eur J Med Chem, 2017).
pEC50, pIC50: −log10 of the molar value. ≈ marks a conversion by molar mass, not a printed value.

Experiments:
Leishmania major [1] = assay: Antileishmanial activity against Leishmania major MHOM/SN/74/Seidman promastigote forms after 8 days; assay type: functional; details: 192 h
Leishmania mexicana [2] = assay: Antileishmanial activity against Leishmania mexicana Walter Reed 227 promastigote forms assessed as reduction in promastigotes sterol biosynthesis at 10 nM after 24 hrs in presence of [2-14C]mevalonate by liquid scintillation spectrometry analysis relative to control; assay type: functional; parameters: scale not given: the % may be the effect or the level left
Leishmania amazonensis [3] = assay: Antileishmanial activity against Leishmania amazonensis LV78 axenic amastigote forms after 8 days; assay type: functional; details: LV78, 192 h
Leishmania braziliensis [4] = assay: Antileishmanial activity against Leishmania braziliensis MHOM/BR/75/M2903 promastigotes forms in presence of terbinafine by trypan blue-staining based light microscopy; assay type: functional
Leishmania tropica [5] = assay: Antileishmanial activity against Leishmania tropica amastigote forms infected in human monocyte-derived macrophage assessed as reduction in parasite infection at 15 ug/ml relative to control; assay type: functional; parameters: scale not given: the % may be the effect or the level left
Leishmania amazonensis [6] = assay: Antileishmanial activity against Leishmania amazonensis LV78 promastigotes forms after 8 days; assay type: functional; details: LV78, 192 h
Leishmania donovani [7] = assay: Antileishmanial activity against Leishmania donovani […] promastigote forms after 8 days; assay type: functional; details: 192 h
Leishmania major [8] = assay: Antileishmanial activity against Leishmania major MRHO/IR/75/ER amastigote forms infected in mouse J774A.1 cells after 60 hrs by giemsa-staining based light microscopic analysis; assay type: functional, cell-based; details: J774.A1, 60 h
[9] = Cytotoxicity against mouse J774A.1 cells assessed as reduction in cell viability after 2 mins by trypan blue dye-light microscopic analysis; assay type: cell-based, J774.A1
Leishmania panamensis [10] = assay: Leishmanicidal activity against Leishmania panamensis LS94 promastigote forms after 18 hrs by indirect microscopic analysis; assay type: functional; details: LS94, 18 h
Leishmania major [11] = assay: Leishmanicidal activity against Leishmania major KK promastigote forms after 18 hrs by indirect microscopic analysis; assay type: functional
Leishmania mexicana [12] = assay: Leishmanicidal activity against Leishmania mexicana 68 promastigote forms after 18 hrs by indirect microscopic analysis; assay type: functional; details: Leishmania mexicana, 68, 18 h
Leishmania amazonensis [13] = assay: Leishmanicidal activity against Leishmania amazonensis JOSEPHA promastigote forms after 18 hrs by indirect microscopic analysis; assay type: functional
Leishmania panamensis [14] = assay: Leishmanicidal activity against Leishmania panamensis L334 promastigotes forms after 18 hrs by indirect microscopic analysis; assay type: functional; details: L334, 18 h
Leishmania donovani [15] = assay: Leishmanicidal activity against Leishmania donovani 1S MHOM/SD/00/1S-2D promastigote forms after 18 hrs by indirect microscopic analysis; assay type: functional
Leishmania mexicana [16] = assay: Leishmanicidal activity against Leishmania mexicana 390 promastigote forms after 18 hrs by indirect microscopic analysis; assay type: functional; details: Leishmania mexicana, 390, 18 h
Leishmania major [17] = assay: (§1) Antileishmanial activity against Leishmania major MHOM/SEN/96/NAN2 stationary phase promastigote forms infected in BALB/c mouse assessed as reduction in parasite burden in popliteal node at 10 mg/kg, ip qd administered for 5 consecutive days measured after 50 days by May-Grunwald-Giemsa staining-based method relative to control; assay type: functional; parameters: scale not given: the % may be the effect or the level left
Leishmania mexicana [18] = assay: Antileishmanial activity against Leishmania mexicana MHOM/MX/95/NAN1 axenic amastigote forms after 96 hrs by uptiblue-based spectrofluorimetric analysis; assay type: functional; details: MHOM/MX/95/NAN1, 96 h
Leishmania major [19] = assay: as §1, with “liver” for “popliteal node”; assay type: functional; parameters: scale not given: the % may be the effect or the level left
Leishmania mexicana [20] = assay: Antileishmanial activity against Leishmania mexicana MHOM/MX/95/NAN1 amastigote forms infected in Balb/c mouse peritoneal macrophages after 48 hrs by May-Grunwald-Giemsa staining-based assay; assay type: functional; details: MHOM/MX/95/NAN1, 48 h
Leishmania major [21] = assay: as §1, with “spleen” for “popliteal node”; assay type: functional; parameters: scale not given: the % may be the effect or the level left
Leishmania major [22] = assay: Antileishmanial activity against Leishmania major LV39 Rho/SU/59/P promastigote forms harboring C14DM null mutant after 48 hrs; assay type: functional
Leishmania major [23] = assay: Antileishmanial activity against wild type Leishmania major LV39 Rho/SU/59/P promastigote forms after 48 hrs; assay type: functional
Leishmania major [24] = assay: Antileishmanial activity against Leishmania major MRHO/IR/75/ER promastigote forms after 72 hrs by MTT assay; assay type: functional
Leishmania chagasi [25] = assay: Antileishmanial activity against Leishmania infantum chagasi MHOM/BR/1972/LD amastigote forms infected in BALB/c mouse macrophage after 120 hrs by giemsa-staining based light microscopic analysis; assay type: functional
Leishmania chagasi [26] = assay: Antileishmanial activity against Leishmania infantum chagasi MHOM/BR/1972/LD promastigote forms infected in golden hamster after 48 hrs by Alamar Blue assay; assay type: functional
[27] = Cytotoxicity against mouse NCTC-929 cells assessed as reduction in cell viability after 48 hrs by Alamar Blue assay; assay type: cell-based; details: NCTC-929, 48 h
Leishmania braziliensis [28] = assay: Antileishmanial activity against Leishmania (Viannia) braziliensis infected in human assessed as cure rate at 5 to 8 mg/kg/day, po for 4 weeks; assay type: functional
Leishmania major [29] = assay: Antileishmanial activity against Leishmania major infected in human assessed as healing of lesions at 200 mg/day, po administered for 6 weeks (reference value: 34%); assay type: functional
Leishmania major [30] = assay: Antileishmanial activity against Leishmania major MHOM/SA/85/JISH118 promastigote forms after 44 hrs by Alamar Blue assay; assay type: functional; details: MHOM/SA/85/JISH118, 44 h
Leishmania major [31] = assay: Antileishmanial activity against Leishmania major MHOM/SA/85/JISH118 promastigote forms after 48 hrs by flow cytometric analysis; assay type: functional; details: MHOM/SA/85/JISH118, 48 h
Leishmania major [32] = assay: Antileishmanial activity against Leishmania major MHOM/SA/85/JISH118 axenic amastigote forms after 44 to 46 hrs by Alamar Blue assay; assay type: functional
Leishmania tropica [33] = assay: Antileishmanial activity against Leishmania tropica amastigote forms infected in human monocyte-derived macrophage assessed as reduction in parasite infection at 2 ug/ml relative to control; assay type: functional; parameters: scale not given: the % may be the effect or the level left
[34] = Selectivity index, ratio of CC50 for mouse J774A.1 cells to IC50 for Leishmania donovani MHOM/IN/80/Dd8 amastigote forms infected in mouse J774A.1 cells; assay type: toxicity, cell-based; details: read-out: Ratio CC50/IC50
Leishmania donovani [35] = assay: Antileishmanial activity against Leishmania donovani MHOM/IN/80/Dd8 amastigote forms infected in golden hamster assessed as inhibition in parasite infection in spleen at 50 mg/kg, ip administered for 5 days measured at day 7 post treatment by giemsa-staining based assay relative to control; assay type: functional; details: MHOM/IN/80/Dd8, ip
Leishmania donovani [36] = assay: Antileishmanial activity against Leishmania donovani MHOM/IN/80/Dd8 amastigote forms infected in mouse J774A.1 cells assessed as reduction in parasite infection after 72 hrs by luciferase reporter gene assay; assay type: functional, cell-based; details: MHOM/IN/80/Dd8, J774.A1, 72 h

## CC(=O)N1CCN(c2ccc(OCC3COC(Cn4ccnc4)(c4ccc(Cl)cc4Cl)O3)cc2)CC1 (stereo unspecified) [KETOCONAZOLE]
Leishmania major [1]
  pIC50: 5.45 to 6.26
Leishmania mexicana [2]
  Activity: 50%
Leishmania amazonensis [3]
  pIC50: 5.50
Leishmania braziliensis [4]
  MIC: 0.03 µM
Leishmania tropica [5]
  Activity: 85%
Leishmania amazonensis [6]
  pIC50: 5.45 to 6.26
Leishmania donovani [7]
  pIC50: 5.45 to 6.26
Leishmania major [8]
  IC50: 12.8 µg/mL

## O/N=C1/c2ccccc2OC(c2ccc(Cl)cc2)C1n1ccnc1 (stereo unspecified)
[9]
  CC50 at 2 min: 355 µM
Leishmania major [8]
  pIC50: 6.22

## CC[C@@H]([C@H](C)O)n1ncn(-c2ccc(N3CCN(c4ccc(OC[C@@H]5CO[C@@](Cn6cncn6)(c6ccc(F)cc6F)C5)cc4)CC3)cc2)c1=O [POSACONAZOLE]
Leishmania panamensis [10]
  MIC: 11.4 to 22.8 µM (≈ 7.99 to 16 µg/mL)
Leishmania major [11]
  MIC: 11.4 to 22.8 µM (≈ 7.99 to 16 µg/mL)
Leishmania mexicana [12]
  MIC: 11.4 to 22.8 µM (≈ 7.99 to 16 µg/mL)
Leishmania amazonensis [13]
  MIC: 11.4 to 22.8 µM (≈ 7.99 to 16 µg/mL)
Leishmania panamensis [14]
  MIC: 11.4 to 22.8 µM (≈ 7.99 to 16 µg/mL)
Leishmania donovani [15]
  MIC: 11.4 to 22.8 µM (≈ 7.99 to 16 µg/mL)
Leishmania mexicana [16]
  MIC: 11.4 to 22.8 µM (≈ 7.99 to 16 µg/mL)

## CCn1cc(C(c2ccc(Cl)cc2Cl)n2ccnc2)c2cc(Br)ccc21 (stereo unspecified)
Leishmania major [17]
  Activity: 49.9%
Leishmania mexicana [18]
  pIC50: 5.36
Leishmania major [19]
  Activity: 79%
Leishmania mexicana [20]
  pIC50: > 6.00
Leishmania major [21]
  Activity: 98.9%

## CCC(C)n1ncn(-c2ccc(N3CCN(c4ccc(OCC5COC(Cn6cncn6)(c6ccc(Cl)cc6Cl)O5)cc4)CC3)cc2)c1=O (stereo unspecified) [ITRACONAZOLE]
Leishmania major [22]
  pIC50: 5.70
Leishmania major [23]
  pIC50: 6.40

## O[C@](Cn1cncn1)(Cn1cnc(/C=C/c2ccc(OCC(F)(F)C(F)F)cc2)n1)c1ccc(F)cc1F
Leishmania braziliensis [4]
  MIC: 0.03 µM

## O/N=C1/c2ccccc2OC(c2cccc(Cl)c2)C1n1ccnc1 (stereo unspecified)
Leishmania major [24]
  pIC50: 4.58

## Clc1ccc(COC(Cn2ccnc2)c2ccc(Cl)cc2Cl)cc1 (stereo unspecified) [ECONAZOLE]
Leishmania chagasi [25]
  pIC50: 4.96
Leishmania chagasi [26]
  pIC50: 5.27
[27]
  pIC50: 4.37 to 4.41

## C[C@@H](c1ncncc1F)[C@](O)(Cn1cncn1)c1ccc(F)cc1F [VORICONAZOLE]
Leishmania major [1]
  pIC50: 4.98 to 5.21
Leishmania amazonensis [3]
  pIC50: 5.23
Leishmania amazonensis [6]
  pIC50: 4.98 to 5.21
Leishmania donovani [7]
  pIC50: 4.98 to 5.21

## OC(Cn1cncn1)(Cn1cncn1)c1ccc(F)cc1F [FLUCONAZOLE]
Leishmania major [1]
  pIC50: < 3.79
Leishmania panamensis [10]
  MIC: 104 µM (≈ 32 µg/mL)
Leishmania major [11]
  MIC: 104 µM (≈ 32 µg/mL)
Leishmania mexicana [12]
  MIC: 104 µM (≈ 32 µg/mL)
Leishmania amazonensis [13]
  MIC: 104 µM (≈ 32 µg/mL)
Leishmania braziliensis [28]
  Activity: 75 - 100%
Leishmania panamensis [14]
  MIC: 104 µM (≈ 32 µg/mL)
Leishmania amazonensis [6]
  pIC50: < 3.79
Leishmania donovani [15]
  MIC: 104 µM (≈ 32 µg/mL)
Leishmania donovani [7]
  pIC50: < 3.79
Leishmania major [29]
  Activity: 79%
Leishmania mexicana [16]
  MIC: 104 µM (≈ 32 µg/mL)

## Clc1ccccc1C(c1ccccc1)(c1ccccc1)n1ccnc1 [CLOTRIMAZOLE]
Leishmania chagasi [26]
  pIC50: 5.55
[27]
  pIC50: 4.37 to 4.41

## Cc1ccc(OCCCCn2ccnc2)c(Cl)c1
Leishmania major [30]
  pEC50: 6.68
Leishmania major [31]
  pEC50: 6.47
Leishmania major [32]
  pEC50: 4.93

## Clc1ccc([C@@]2(Cn3ccnc3)OC[C@H](COc3ccc(N4CCNCC4)cc3)O2)c(Cl)c1
Leishmania tropica [33]
  Activity: 85%

## c1ccc(-c2ccc(C(c3ccccc3)n3ccnc3)cc2)cc1 (stereo unspecified) [BIFONAZOLE]
Leishmania chagasi [26]
  pIC50: 5.05
[27]
  pIC50: 4.37 to 4.41

## Clc1cccc(CO/N=C2/c3cccc(Cl)c3CCC2Cn2ccnc2)c1 (stereo unspecified)
[34]
  selectivity ratio: 25.6
Leishmania donovani [35]
  inhibition in vivo at 50 mg/kg: 70%
Leishmania donovani [36]
  pIC50: 5.63
